For one data set, the target named is T1, human FXa (Homo sapiens, UniProt P00742).
T1 construct: purchased Hyphen BioMed
The data set is described as follows: Inhibition activity measurement against FXa (chromogenic substrate CS-11(22)). It is filed as biochemical. Particulars: for IC50: human FXa, chromogenic substrate, 37°C, read at 405 nm; for FXa inhibitory activity (in words): SAR statement in text. As for the experimental part:
The inhibition of FXa was measured using human FXa (Hyphen BioMed, city, Paris, FRA) and chromogenic substrate CS-11(22) (Hyphen BioMed, Paris, FRA) in 384-well microtiter plates at room temperature. […] 2 μL of FXa (56.8 nM), 16 μL of Tris buffer (adjust to pH 7.4 with HCl containing 0.3 M NaCl and 50 mM Tris) and 3 μL of test compound were added to the well, respectively. The negative control was composed of the same mixed solutions except replacing test compound with DMSO. […] After incubated at 37°C for 5 min, 8 μL of FXa substrate solution (3.5 mM) was added and then incubated at 37°C for 25 min. The FXa activity was measured at 405 nm using a SpectraMax M5 (Molecular Devices, Sunnyvale, CA, USA). The IC50 was calculated by the software named SPSS (IBM, North Castle, NY, USA) and the Probit function in it.

Where only a bound is given, the exact number is not on record here.

T1 sequence (P00742 235-488 limits assumed): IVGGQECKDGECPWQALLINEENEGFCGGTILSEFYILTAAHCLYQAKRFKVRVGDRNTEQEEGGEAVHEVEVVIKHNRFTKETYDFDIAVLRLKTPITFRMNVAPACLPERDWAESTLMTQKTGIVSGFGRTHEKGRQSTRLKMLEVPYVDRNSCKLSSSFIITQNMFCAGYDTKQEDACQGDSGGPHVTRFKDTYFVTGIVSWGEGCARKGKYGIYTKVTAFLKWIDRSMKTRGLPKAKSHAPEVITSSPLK
T1 sequence (P00742 41-179 partner limits assumed): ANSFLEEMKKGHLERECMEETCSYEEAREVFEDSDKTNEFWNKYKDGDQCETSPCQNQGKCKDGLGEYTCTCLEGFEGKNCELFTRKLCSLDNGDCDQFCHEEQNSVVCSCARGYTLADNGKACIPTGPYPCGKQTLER

Compound `COc1ccc(C(=O)Nc2ccccc2C(=O)Nc2ccc(-n3ccccc3=O)cc2)cc1OC` [6m, 3,4-dimethoxy-N-(2-((4-(2-oxopyridin-1(2H)-yl)phenyl)arbamoyl)phenyl)benzamide] registered a melting point of more than 250 °C. Further, the IC50 against human FXa was more than 1000 nM.
For `COc1ccc(C(=O)Nc2ccc(C)cc2C(=O)Nc2ccc(-n3ccccc3=O)cc2)cc1` [6l-b, 2-(4-methoxybenzamido)-5-methyl-N-(4-(2-oxopyrid-in-1(2H)-yl)phenyl)benzamide], in that order: more than 250 °C and 452 nM.
For `Cc1cccc(C(=O)Nc2ccc(N3CCOCC3=O)cc2)c1NC(=O)c1ccc(Cl)nc1` [6h-g, 6-chloro-N-(2-methyl-6-((4-(3-oxomorpholino)phenyl)carbamoyl)phenyl)nicotinamide], in that order: more than 250 °C and more than 1000 nM.
For `COc1ccc(C(=O)Nc2ccccc2C(=O)Nc2ccc(N3CCOCC3=O)cc2)cc1` [6l-d, 2-(4-methoxybenzamido)-N-(4-(3-oxomorpholino)phe-nyl)benzamide], in that order: more than 250 °C and 459 nM.
In turn, `COc1ccc(C(=O)Nc2ccc(C)cc2C(=O)Nc2ccc(N3CCOCC3=O)cc2)cc1` [6l-f, 2-(4-methoxybenzamido)-5-methyl-N-(4-(3-oxomorph-olino)phenyl)benzamide] registered a melting point of more than 250 °C. Also, the IC50 at human FXa was determined as 433 nM.
For `COc1ccc(C(=O)Nc2c(C)cccc2C(=O)Nc2ccc(-n3ccccc3=O)cc2)cc1` [6l-c, 2-(4-methoxybenzamido)-3-methyl-N-(4-(2-oxopyrid-in-1(2H)-yl)phenyl)benzamide], in that order: more than 250 °C and more than 1000 nM.
Take `O=C(Nc1ccccc1C(=O)Nc1ccc(-n2ccccc2=O)cc1)c1ccc(Br)o1` [6d, 5-bromo-N-(2-((4-(2-oxopyridin-1(2H)-yl)phenyl)carb-amoyl)phenyl)furan-2-carboxamide]: the melting point was more than 250 °C. Further, the IC50 against human FXa was more than 1000 nM.
For `O=C(Nc1ccc(Cl)cc1C(=O)Nc1ccc(-n2ccccc2=O)cc1)c1ccc(Cl)nc1` [6h-a, 6-chloro-N-(4-chloro-2-((4-(2-oxopyridin-1(2H)-yl)ph-enyl)carbamoyl)phenyl)nicotinamide], in that order: more than 250 °C and 427 nM.
The compound `N#Cc1ccc(C(=O)Nc2ccccc2C(=O)Nc2ccc(-n3ccccc3=O)cc2)cc1` [6f, 2-(4-cyanobenzamido)-N-(4-(2-oxopyridin-1(2H)-yl)phenyl)benzamide] had a melting point of more than 250 °C. The compound also came in with an IC50 at human FXa of more than 1000 nM.
The matching figures for `Cc1ccc(NC(=O)c2ccc(Br)s2)c(C(=O)Nc2ccc(N3CCOCC3=O)cc2)c1` [6a-f, 5-bromo-N-(4-methyl-2-((4-(3-oxomorpholino)phenyl)carbamoyl)phenyl)thiophene-2-carboxamide]: more than 250 °C and 54.8 nM.
For `COc1ccc(C(=O)Nc2c(C)cccc2C(=O)Nc2ccc(N3CCOCC3=O)cc2)cc1` [6l-g, 2-(4-methoxybenzamido)-3-methyl-N-(4-(3-oxomorph-olino)phenyl)benzamide], in that order: more than 250 °C and more than 1000 nM.
For `COc1ccc(C(=O)Nc2ccccc2C(=O)Nc2ccc(-n3ccccc3=O)cc2)cc1` [6l, 2-(4-methoxybenzamido)-N-(4-(2-oxopyridin-1(2H)-yl)phenyl)benzamide], in that order: more than 250 °C and 181 nM.
With `COc1ccc(C(=O)Nc2ccccc2C(=O)Nc2ccc(-n3ccccc3=O)cc2)cc1[N+](=O)[O-]` [6g, 4-methoxy-3-nitro-N-(2-((4-(2-oxopyridin-1(2H)-yl)ph-enyl)carbamoyl)phenyl)benzamide], the melting point is more than 250 °C. Moreover, on human FXa, the IC50 is more than 1000 nM.
The matching figures for `Cc1ccc(NC(=O)c2ccc(Cl)nc2)c(C(=O)Nc2ccc(-n3ccccc3=O)cc2)c1` [6h-b, 6-chloro-N-(4-methyl-2-((4-(2-oxopyridin-1(2H)-yl)ph-enyl)carbamoyl)phenyl)nicotinamide]: more than 250 °C and 212 nM.
For `O=C(Nc1ccccc1C(=O)Nc1ccc(-n2ccccc2=O)cc1)c1ccc(Cl)nc1` [6h, 6-chloro-N-(2-((4-(2-oxopyridin-1(2H)-yl)phenyl)carb-amoyl)phenyl)nicotinamide], in that order: more than 250 °C and 278 nM.
As to `O=C(Nc1ccccc1C(=O)Nc1ccc(-n2ccccc2=O)cc1)c1ccc([N+](=O)[O-])cc1` [6e, 2-(4-nitrobenzamido)-N-(4-(2-oxopyridin-1 (2H)-yl)ph-enyl)benzamide], the melting point was more than 250 °C.
In turn, `Cc1ccc(NC(=O)c2ccc(Cl)cc2Cl)c(C(=O)Nc2ccc(N3CCOCC3=O)cc2)c1` [6k-f, 2,4-dichloro-N-(4-methyl-2-((4-(3-oxomorpholino)phe-nyl)carbamoyl)phenyl)benzamide] came in with a melting point of more than 250 °C. Further, at human FXa, the IC50 is 282 nM.
In the case of `Cc1ccc(NC(=O)c2ccc(Cl)nc2)c(C(=O)Nc2ccc(N3CCOCC3=O)cc2)c1` [6h-f, 6-chloro-N-(4-methyl-2-((4-(3-oxomorpholino)phenyl)carbamoyl)phenyl)nicotinamide], the melting point is more than 250 °C. It took 453 nM to reach half-maximal inhibition against human FXa (IC50).
`O=C(Nc1ccc(Cl)cc1C(=O)Nc1ccc(-n2ccccc2=O)cc1)c1ccc(Br)s1` [6a-a, 5-bromo-N-(4-chloro-2-((4-(2-oxopyridin-1(2H)-yl)ph-enyl)carbamoyl)phenyl)thiophene-2-carboxamide] gave a melting point of more than 250 °C. The compound also yielded an IC50 at human FXa of 121 nM.
For `COc1cc(C(=O)Nc2ccccc2C(=O)Nc2ccc(-n3ccccc3=O)cc2)cc(OC)c1OC` [6n, 3,4,5-trimethoxy-N-(2-((4-(2-oxopyridin-1(2H)-yl)phenyl)carbamoyl)phenyl)benzamide], in that order: more than 250 °C and more than 1000 nM.
Regarding `O=C(Nc1ccccc1C(=O)Nc1ccc(-n2ccccc2=O)cc1)c1ccc(C(F)(F)F)cc1` [6o, N-(4-(2-oxopyridin-1(2H)-yl)phenyl)-2-(4-(trifluoro-methyl)benzamido)benzamide], the melting point was more than 250 °C. At human FXa, this compound gave an IC50 of more than 1000 nM.
The matching figures for `O=C(Nc1ccccc1C(=O)Nc1ccc(-n2ccccc2=O)cc1)c1ccc(Cl)o1` [6c, 5-chloro-N-(2-((4-(2-oxopyridin-1(2H)-yl)phenyl)carb-amoyl)phenyl)furan-2-carboxamide]: more than 250 °C and more than 1000 nM.
As to `Cc1cccc(C(=O)Nc2ccc(N3CCOCC3=O)cc2)c1NC(=O)c1ccc(Cl)cc1Cl` [6k-g, 2-(2,4-dichlorobenzamido)-3-methyl-N-(4-(3-oxomor-pholino)phenyl)benzamide], the melting point is more than 250 °C. Besides, on human FXa, the “FXa inhibitory activity (in words)” value was “poor IC50 values at a micromole level” and the IC50 is more than 1000 nM.
`O=C(Nc1ccc(Cl)cc1C(=O)Nc1ccc(N2CCOCC2=O)cc1)c1ccc(Cl)nc1` [6h-e, 6-chloro-N-(4-chloro-2-((4-(3-oxomorpholino)phenyl)carbamoyl)phenyl)nicotinamide] had a melting point of more than 250 °C. Moreover, on human FXa, 781 nM corresponded to half-maximal inhibition (IC50).
The matching figures for `Cc1ccc(C(=O)Nc2ccccc2C(=O)Nc2ccc(-n3ccccc3=O)cc2)s1` [6b, 5-methyl-N-(2-((4-(2-oxopyridin-1(2H)-yl)phenyl)carb-amoyl)phenyl)thiophene-2-carboxamide]: more than 250 °C and more than 1000 nM.
For `Cc1cccc(C(=O)Nc2ccc(-n3ccccc3=O)cc2)c1NC(=O)c1ccc(Cl)nc1` [6h-c, 6-chloro-N-(2-methyl-6-((4-(2-oxopyridin-1(2H)-yl)ph-enyl)carbamoyl)phenyl)nicotinamide], in that order: more than 250 °C and more than 1000 nM.
The compound `Cc1cccc(C(=O)Nc2ccc(-n3ccccc3=O)cc2)c1NC(=O)c1ccc(Cl)cc1Cl` [6k-c, 2-(2,4-dichlorobenzamido)-3-methyl-N-(4-(2-oxopyrid-in-1(2H)-yl)phenyl)benzamide] returned a melting point of more than 250 °C. Moreover, at human FXa, the “FXa inhibitory activity (in words)” value is “poor IC50 values at a micromole level” and the IC50 is more than 1000 nM.
For `Cc1cccc(C(=O)Nc2ccc(N3CCOCC3=O)cc2)c1NC(=O)c1ccc(Br)s1` [6a-g, 5-bromo-N-(2-methyl-6-((4-(3-oxomorpholino)phenyl)carbamoyl)phenyl)thiophene-2-carboxamide], in that order: more than 250 °C, “poor IC50 values at a micromole level” and more than 1000 nM.
`Cc1cccc(C(=O)Nc2ccc(-n3ccccc3=O)cc2)c1NC(=O)c1ccc(Br)s1` [6a-c, 5-bromo-N-(2-methyl-6-((4-(2-oxopyridin-1(2H)-yl)ph-enyl)carbamoyl)phenyl)thiophene-2-carboxamide] showed a melting point of more than 250 °C. Further, at human FXa, the “FXa inhibitory activity (in words)” value is listed as “poor IC50 values at a micromole level” and the IC50 is more than 1000 nM.
In the case of `O=C(Nc1ccccc1C(=O)Nc1ccc(-n2ccccc2=O)cc1)c1cc(F)c(F)c(F)c1` [6j, 3,4,5-trifluoro-N-(2-((4-(2-oxopyridin-1(2H)-yl)phenyl)arbamoyl)phenyl)benzamide], the melting point was more than 250 °C. Moreover, the IC50 against human FXa was more than 1000 nM.

Usually IC50 stands for the concentration that inhibits the measured activity by half. A lower IC50 goes with higher potency. What is called melting point is the temperature, or range, at which the solid turns liquid.

The values above are taken from paper PMC5514901, “Synthesis and evaluation of anthranilamide-based derivatives as FXa inhibitors” (Oncotarget, 2017).
